Patent US10633419B2, “Immunomodulators” (BRISTOL-MYERS SQUIBB COMPANY, priority 2014, dated 2020)
Positions of bridges follow the written chain, without caps; N, C: chain ends. Non-standard residues stand in square brackets, D forms with d. Residues, ends and D or L forms follow the SMILES beside them. *: point of attachment. X22 = CCCCCCCCCCCCCC(=O)N[C@H](CCC(=O)NCCCC[C@H](NC(=O)CCC(=O)NCCCOCCOCCOCCCN*)C(N)=O)C(=O)O; X6 = O=C(O)CCCCCCCCCCCCCCCCC(=O)N[C@@H](CCC(=O)NCCCOCCOCCOCCCN*)C(=O)O; Trp(1-CH2COOH) = N[C@@H](Cc1cn(CC(=O)O)c2ccccc12)C(=O)O; X14 = O=C(O)CCCCCCCCCCNC(=O)CCC(=O)NCCCOCCOCCOCCCN*; Hyp = O=C(O)[C@@H]1C[C@@H](O)CN1; NMeNle = CCCC[C@H](NC)C(=O)O; NMeA = CN[C@@H](C)C(=O)O; Aun = NCCCCCCCCCCC(=O)O; Dab = NCC[C@H](N)C(=O)O; Dap = NC[C@H](N)C(=O)O; Sar = CNCC(=O)O

These compounds were tested against T1, PD-L1 (Homo sapiens, UniProt Q9NZQ7) (assay: PD-1/PD-L1 Homogenous Time-Resolved Fluorescence (HTRF) binding assay (PD-1-Ig/PD-L1-His)). Details: inhibition of PD-1-Ig binding to PD-L1-TVMV-His; value given as range class; read-out: HTRF IC50.
T1 construct: hPDL1(19-239)-TVMV-His; made in house; host or cells: HEK293T
In short: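 HTRF competition in dPBS with 0.1% BSA and 0.05% Tween-20: 20 nM PD-1-Ig added after 15 min compound pre-incubation with 10 nM PD-L1-His, then another 15 min. Signal (665/620 nm) after 30 min with APC anti-His (20 nM) and Eu anti-Ig (1 nM).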

T1 sequence (Q9NZQ7 with tags, fused parts or gaps): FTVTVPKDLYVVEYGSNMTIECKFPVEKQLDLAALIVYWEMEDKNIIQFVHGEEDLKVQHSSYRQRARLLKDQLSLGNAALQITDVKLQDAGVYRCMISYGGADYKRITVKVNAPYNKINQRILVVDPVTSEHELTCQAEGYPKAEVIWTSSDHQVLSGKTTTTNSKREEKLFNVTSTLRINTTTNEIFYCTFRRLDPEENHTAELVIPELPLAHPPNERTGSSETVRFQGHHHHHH

Structure (SMILES) | IC50 [nM]
CCCC[C@H]1C(=O)N(C)[C@@H](CCCC)C(=O)N[C@@H](CC(C)C)C(=O)N[C@H](C(=O)NCCCOCCOCCOCCCNC(=O)CCC(=O)NCCCCCCCCCCC(=O)O)CSCC(=O)N[C@@H](Cc2ccc(O)cc2)C(=O)N(C)[C@@H](C)C(=O)N[C@@H](CC(N)=O)C(=O)N2CCC[C@H]2C(=O)N[C@@H](Cc2cnc[nH]2)C(=O)N[C@@H](CCC(=O)O)C(=O)N2C[C@H](O)C[C@H]2C(=O)N[C@@H](Cc2c[nH]c3ccccc23)C(=O)N[C@@H](CO)C(=O)N[C@@H](Cc2c[nH]c3ccccc23)C(=O)N1C [Example 11073] ({CH2CO}-Y[NMeA]NPHE[Hyp]WSW[NMeNle][NMeNle]LC-X14; thioether N-14) | 10 to 99
CCCCCCCCCCCCCC(=O)N[C@H](CCC(=O)NCCCC[C@H](NC(=O)CCC(=O)NCCCOCCOCCOCCCNC(=O)CNC(=O)[C@@H]1CSCC(=O)N[C@@H](Cc2ccc(O)cc2)C(=O)N(C)[C@@H](C)C(=O)N[C@@H](CC(=O)O)C(=O)N2CCC[C@H]2C(=O)N[C@@H](Cc2cnc[nH]2)C(=O)N[C@@H](CC(C)C)C(=O)N2C[C@H](O)C[C@H]2C(=O)N[C@@H](Cc2c[nH]c3ccccc23)C(=O)N[C@@H](CO)C(=O)N[C@@H](Cc2c[nH]c3ccccc23)C(=O)N(C)[C@@H](CCCC)C(=O)N(C)[C@@H](CCCC)C(=O)N[C@@H](CCCNC(=N)N)C(=O)N1)C(N)=O)C(=O)O [Example 11125] ({CH2CO}-Y[NMeA]DPHL[Hyp]WSW[NMeNle][NMeNle]RCG-X22; thioether N-14) | 10 to 99
CCCC[C@H]1C(=O)N(C)[C@@H](CCCC)C(=O)N[C@@H](CCC(=O)O)C(=O)N[C@H](C(=O)NCC(=O)N[C@@H](Cc2cn(CC[C@H](NC(=O)CCCCCCCCCCCCCCC(=O)O)C(=O)O)nn2)C(N)=O)CSCC(=O)N[C@@H](Cc2ccc(O)cc2)C(=O)N(C)[C@@H](C)C(=O)N[C@@H](CC(N)=O)C(=O)N2CCC[C@H]2C(=O)N[C@@H](CN)C(=O)N[C@@H](CC(C)C)C(=O)N2C[C@H](O)C[C@H]2C(=O)N[C@@H](Cc2c[nH]c3ccccc23)C(=O)N[C@@H](CO)C(=O)N[C@@H](Cc2cn(CC(=O)O)c3ccccc23)C(=O)N1C [Example 14070] | 10 to 99

Next, values leading:

IC50 [nM] | Structure (SMILES)
10 to 99 | CCCC[C@H]1C(=O)N2CCC[C@@H]2C(=O)N[C@@H](CC(=O)O)C(=O)N[C@@H](C(C)C)C(=O)N(C)[C@@H](Cc2ccccc2)C(=O)N[C@@H](CCCN)C(=O)N2CCC[C@@H]2C(=O)N[C@@H](Cc2c[nH]c3ccccc23)C(=O)N[C@@H](Cc2ccc(O)cc2)C(=O)N[C@@H](CC(C)C)C(=O)N[C@H](C(=O)NCC(=O)N[C@@H](Cc2cn(CC[C@H](NC(=O)CCCCCCCCCCCCCCC(=O)O)C(=O)O)nn2)C(N)=O)CSCC(=O)N[C@@H](Cc2cc(F)c(F)c(F)c2)C(=O)N(C)[C@@H](Cc2ccccc2)C(=O)N1C [Example 14073]
10 to 99 | CCCC[C@H]1C(=O)N(C)[C@@H](CCCC)C(=O)N[C@@H](CCC(=O)O)C(=O)N[C@H](C(=O)NCC(=O)N[C@@H](CC(=O)NCCCOCCOCCOCCCNC(=O)CC[C@H](NC(=O)CCCCCCCCCCCCCCCCC(=O)O)C(=O)O)C(=O)O)CSCC(=O)N[C@@H](Cc2ccc(O)cc2)C(=O)N(C)[C@@H](C)C(=O)N[C@@H](CC(=O)O)C(=O)N(C)CC(=O)N[C@@H](Cc2c[nH]cn2)C(=O)N[C@@H](CCCCN)C(=O)N2C[C@H](O)C[C@H]2C(=O)N[C@@H](Cc2c[nH]c3ccccc23)C(=O)N[C@@H](CCN)C(=O)N[C@@H](Cc2cn(CC(=O)O)c3ccccc23)C(=O)N1C [Example 11174] ({CH2CO}-Y[NMeA]D[Sar]HK[Hyp]W[Dab][Trp(1-CH2COOH)][NMeNle][NMeNle]ECGD(X6)-OH; thioether N-14)
10 to 99 | CCCC[C@H]1C(=O)N(C)[C@@H](CCCC)C(=O)N[C@@H](CCC(=O)O)C(=O)N[C@H](C(=O)NCC(=O)N[C@@H](Cc2cn(CC[C@H](NC(=O)CCCCCCCCCCCCCCC(=O)O)C(=O)O)nn2)C(=O)N[C@@H](CC(=O)O)C(N)=O)CSCC(=O)N[C@@H](Cc2ccc(O)cc2)C(=O)N(C)[C@@H](C)C(=O)N[C@@H](CC(=O)O)C(=O)N2CCC[C@H]2C(=O)N[C@@H](Cc2c[nH]cn2)C(=O)N[C@@H](CCCCN)C(=O)N2C[C@H](O)C[C@H]2C(=O)N[C@@H](Cc2c[nH]c3ccccc23)C(=O)N[C@@H](CCCCN)C(=O)N[C@@H](Cc2c[nH]c3ccccc23)C(=O)N1C [Example 14065]
10 to 99 | CCCC[C@H]1C(=O)N(C)[C@@H](CCCC)C(=O)N[C@@H](CC(C)C)C(=O)N[C@H](C(=O)NCCCCCCCCCCC(=O)NCCCCCCCCCCC(=O)NCCCCCCCCCCC(=O)O)CSCC(=O)N[C@@H](Cc2ccc(O)cc2)C(=O)N(C)[C@@H](C)C(=O)N[C@@H](CC(N)=O)C(=O)N2CCC[C@H]2C(=O)N[C@@H](CN)C(=O)N[C@@H](CCC(N)=O)C(=O)N2C[C@H](O)C[C@H]2C(=O)N[C@@H](Cc2c[nH]c3ccccc23)C(=O)N[C@@H](CO)C(=O)N[C@@H](Cc2cn(CC(=O)O)c3ccccc23)C(=O)N1C [Example 11090] ({CH2CO}-Y[NMeA]NP[Dap]Q[Hyp]WS[Trp(1-CH2COOH)][NMeNle][NMeNle]LC[Aun][Aun][Aun]-OH; thioether N-14)
